Assay results reported in patent US20100261706A1, “SUBSTITUTED TETRACYCLIC 1H-INDENO [1,2-B]PYRIDINE-2(5H)-ONE ANALOGS THEREOF AND USES THEREOF” (INOTEK PHARMACEUTICALS CORPORATION, priority 2008, published 2010).
Structures can show the parent of a compound that is named as a salt.

Key:
PARP-1 enzyme = target: T1, PARP-1 enzyme (Homo sapiens, UniProt P09874); experiment: Purified PARP-1 enzyme inhibition assay (Trevigen kit, 96 well ELISA plates); type: biochemical
T1 construct: purchased Trevigen, Gaithersburg, Md
T1 sequence (P09874 whole entry): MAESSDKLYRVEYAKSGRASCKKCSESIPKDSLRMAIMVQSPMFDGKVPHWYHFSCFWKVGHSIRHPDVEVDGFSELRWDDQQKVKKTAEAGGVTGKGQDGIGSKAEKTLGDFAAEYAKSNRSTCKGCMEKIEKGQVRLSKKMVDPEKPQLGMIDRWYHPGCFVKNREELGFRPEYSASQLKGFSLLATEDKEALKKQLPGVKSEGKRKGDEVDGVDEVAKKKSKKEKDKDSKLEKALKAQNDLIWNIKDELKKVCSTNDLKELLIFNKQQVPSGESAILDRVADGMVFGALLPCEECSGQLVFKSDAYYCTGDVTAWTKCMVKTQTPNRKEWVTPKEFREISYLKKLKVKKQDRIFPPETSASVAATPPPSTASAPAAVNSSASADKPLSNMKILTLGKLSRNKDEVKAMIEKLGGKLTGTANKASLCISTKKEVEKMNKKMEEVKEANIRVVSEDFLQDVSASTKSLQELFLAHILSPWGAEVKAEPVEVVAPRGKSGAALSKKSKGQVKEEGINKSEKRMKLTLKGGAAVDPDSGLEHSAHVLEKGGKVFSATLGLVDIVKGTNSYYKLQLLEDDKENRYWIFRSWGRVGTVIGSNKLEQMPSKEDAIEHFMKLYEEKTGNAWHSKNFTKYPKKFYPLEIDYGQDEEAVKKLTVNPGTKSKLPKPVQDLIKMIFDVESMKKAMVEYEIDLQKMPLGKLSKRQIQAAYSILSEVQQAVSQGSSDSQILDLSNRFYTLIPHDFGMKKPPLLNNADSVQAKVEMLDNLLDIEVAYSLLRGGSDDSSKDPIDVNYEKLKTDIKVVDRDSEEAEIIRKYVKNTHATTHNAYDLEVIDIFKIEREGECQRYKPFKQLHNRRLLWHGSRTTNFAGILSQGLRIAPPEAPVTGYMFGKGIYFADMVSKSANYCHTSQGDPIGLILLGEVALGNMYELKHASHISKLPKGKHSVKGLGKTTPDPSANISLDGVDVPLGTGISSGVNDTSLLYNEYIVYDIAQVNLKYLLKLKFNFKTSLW
Procedure: Effect of Tetracyclic 1H-indeno[1,2-b]pyridine-2(5H)-one analogs on PARP Activity in purified PARP-1 enzyme assay
The potency of inhibition on purified PARP-1 enzyme was subsequently determined for selected compounds, and the potency was compared with INO-1001. The assay was performed in 96 well ELISA plates according to instructions provided with a commercially available PARP-1 inhibition assay kit (Trevigen, Gaithersburg, Md.). Briefly, wells were coated with 1 mg/ml histone (50 μl/well) at 4° C. overnight. Plates were then washed four times with PBS and then blocked by adding 50 μl Strep-Diluent (supplied with the kit). After incubation (1 h, 25° C.), the plates were washed four times with PBS. Appropriate dilutions of compound was combined with 2×PARP cocktail (1.95 mM NAD^+, 50 μM biotinylated NAD^+ in 50 mM TRIS pH 8.0, 25 mM MgCl2) and high specific activity PARP enzyme (both were supplied with the kit) in a volume of 50 μl. The reaction was allowed to proceed for 30 min at room temperature. After 4 washes in PBS, incorporated biotin was detected by peroxidase-conjugated streptavidin (1:500 dilution) and TACS Sapphire substrate. EC50 and IC50 values were determined from a dose-response curve.

PARP = target: T2, PARP (Mus musculus, UniProt P11103); experiment: PARP activity in cultured macrophages, whole-cell based assay (3H-NAD+ incorporation after hydrogen peroxide); details: murine RAW macrophages, 1 hour pretreatment, hydrogen peroxide 0.5 mM
T2 construct: PARP Activity in Cultured Macrophages, Using a Whole-Cell Based Assay; endogenous in cells; host or cells: murine RAW macrophages (ATCC)
T2 sequence (P11103 whole entry): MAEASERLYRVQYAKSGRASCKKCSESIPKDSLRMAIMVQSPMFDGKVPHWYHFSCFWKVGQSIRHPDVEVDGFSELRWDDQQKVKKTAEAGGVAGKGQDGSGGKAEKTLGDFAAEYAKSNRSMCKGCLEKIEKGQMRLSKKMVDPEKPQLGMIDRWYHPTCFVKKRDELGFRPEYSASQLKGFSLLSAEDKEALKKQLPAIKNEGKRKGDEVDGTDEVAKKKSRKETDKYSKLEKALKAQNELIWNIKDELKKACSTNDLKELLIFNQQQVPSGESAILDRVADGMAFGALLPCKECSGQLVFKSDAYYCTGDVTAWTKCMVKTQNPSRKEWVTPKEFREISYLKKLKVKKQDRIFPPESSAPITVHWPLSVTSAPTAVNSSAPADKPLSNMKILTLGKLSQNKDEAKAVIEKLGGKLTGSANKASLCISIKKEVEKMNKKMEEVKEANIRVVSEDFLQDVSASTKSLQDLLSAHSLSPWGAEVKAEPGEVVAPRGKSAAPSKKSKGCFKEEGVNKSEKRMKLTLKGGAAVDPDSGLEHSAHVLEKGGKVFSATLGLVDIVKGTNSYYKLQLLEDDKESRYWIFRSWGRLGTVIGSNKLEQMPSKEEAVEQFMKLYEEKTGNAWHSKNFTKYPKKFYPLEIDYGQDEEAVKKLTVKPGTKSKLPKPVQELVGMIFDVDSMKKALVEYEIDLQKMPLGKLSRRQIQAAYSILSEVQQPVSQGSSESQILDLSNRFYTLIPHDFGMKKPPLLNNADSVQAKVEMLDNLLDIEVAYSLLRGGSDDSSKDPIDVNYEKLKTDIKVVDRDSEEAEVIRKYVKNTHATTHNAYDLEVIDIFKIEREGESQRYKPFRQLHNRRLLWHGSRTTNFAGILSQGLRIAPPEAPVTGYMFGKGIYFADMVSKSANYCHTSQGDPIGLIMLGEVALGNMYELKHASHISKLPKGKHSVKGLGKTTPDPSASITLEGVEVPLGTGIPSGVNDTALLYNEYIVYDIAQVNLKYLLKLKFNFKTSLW
Procedure: Effect of Tetracyclic 1H-indeno[1,2-b]pyridine-2(511)-one Analogs on PARP Activity in Cultured Macrophages, Using a Whole-Cell Based Assay
The murine RAW macrophages (ATCC, American Type Culture Collection, Manassas, Va.) were grown in […] (Invitrogen Life Technologies; Carlsbad, Calif.) medium supplemented with 10% heat-inactivated FBS, 2 mM L-glutamine, and 100 U/ml of penicillin and streptomycin. Cells, between passages 5 and 15, were seeded at a density of 250,000 cells/well in 12 well plates and allowed to grow 48 hours before use. Growth medium was changed on the day of use. Cells were treated with a tetracyclic 1H-indeno[1,2-b]pyridine-2(5H)-one analog diluted in a growth medium supplemented with 10% fetal bovine serum (FBS) for 1 hour prior to the addition of hydrogen peroxide (0.5 mM) for a further 25 minutes. For the measurement of PARP activity, media was removed and replaced with 0.5 ml of the assay buffer (56 mM HEPES-pH 7.5, 28 mM KCl, 28 mM NaCl, 2 mM MgCl2, 0.01% digitonin, and 0.5 μCi/ml of ^3H-NAD^+) for 20 minutes. After aspirating the assay buffer, cells were lysed and transferred to eppendorf tubes containing 250 μl of 50% ice-cold trichloroacetic acid (TCA), which were then placed at 4° C. for 4 hours. Samples were centrifuged at 10,000 g for 10 minutes and supernatant removed. The pellets were washed twice with 500 μl of ice-cold 5% w/v TCA. The pellets were then solubilized in 250 μl of NaOH (0.1 M) containing 2% SDS overnight at 37° C. and the PARP activity was then determined by measuring the radioactivity incorporated using a Wallac scintillation counter. The solubilized protein (250 μl) was mixed with 5 ml of scintillation fluid (ScintiSafe Plus, Fisher Scientific) before being counted for 3 minutes. EC50 values were determined from a dose-response curve.

Row | IC50 (PARP-1 enzyme) | EC50 (PARP) | SMILES
1 | 27 nM | 10 nM | O=c1[nH]c2c(c3ccsc13)Cc1c(CNC3CCCC3)cccc1-2 [Example 48, 9-((cyclopentylamino)methyl)-5,10-dihydro-4H-indeno[1,2-b]thieno[3,2-d]pyridin-4-one]
2 | 25.5 nM | 6.1 nM | CCCCN1CCN(c2cccc3c2Cc2c-3[nH]c(=O)c3cccnc23)CC1 [Example 58, 10-(4-butylpiperazin-1-yl)-6,11-dihydro-5H-indeno[1,2-h][1,6]naphthyridin-5-one]
3 | 6.3 nM | 5 nM | O=c1[nH]c2c(c3c1CCCC3)Cc1c(CNC3(CO)CCCC3)cccc1-2 [Example 50, 10-((1-(hydroxymethyl)cyclopentylamino)methyl)-3,4,6,11-tetrahydro-1H-indeno[1,2-c]isoquinolin-5(2H)-one]
4 | 5.15 nM | 1.52 nM | O=c1[nH]c2c(c3c1CCCC3)Cc1c(CN3CCCCC3)cccc1-2 [Example 2, 10-(piperidin-1-ylmethyl)-3,4,6,11-tetrahydro-1H-indeno[1,2-c]isoquinolin-5(2H)-one]
5 | 54.7 nM | 18.4 nM | O=c1[nH]c2c(c3c1CCCC3)Cc1c(CN3CC=CCC3)cccc1-2 [Example 69, 10-((5,6-dihydropyridin-1(2H)-yl)methyl)-3,4,6,11-tetrahydro-1H-indeno[1,2-c]isoquinolin-5(2H)-one]
6 | 3.4 nM | 5 nM | O=c1[nH]c2c(c3c1CCCC3)Cc1c(CNC3CCCC3)cccc1-2 [Example 26, 10-((cyclopentylamino)methyl)-3,4,6,11-tetrahydro-1H-indeno[1,2-c]isoquinolin-5(2H)-one]
7 | 5.5 nM | 25 nM | O=c1[nH]c2c(c3c1CCCC3)Cc1cc(CNCCN3CCOCC3)ccc1-2 [Example 45, 9-((2-morpholinoethylamino)methyl)-3,4,6,11-tetrahydro-1H-indeno[1,2-c]isoquinolin-5(2H)-one]
8 | 73.6 nM | 55 nM | CSCCC(=O)Nc1cccc2c1Cc1c-2[nH]c(=O)c2c1CCCC2 [Example 52, 3-(methylthio)-N-(5-oxo-2,3,4,5,6,11-hexahydro-1H-indeno[1,2-c]isoquinolin-10-yl)propanamide]
9 | 8.1 nM | 9 nM | COCCN1CCN(c2cccc3c2Cc2c-3[nH]c(=O)c3c2CCCC3)CC1 [Example 43, 10-(4-(2-methoxyethyl)piperazin-1-yl)-3,4,6,11-tetrahydro-1H-indeno[1,2-c]isoquinolin-5(2H)-one]
10 | 3.83 nM | 11.3 nM | O=c1[nH]c2c(c3c1CCCC3)Cc1c(CN3CCC(O)CC3)cccc1-2 [Example 1, 10-((4-hydroxypiperidin-1-yl)methyl)-3,4,6,11-tetrahydro-1H-indeno[1,2-c]isoquinolin-5(2H)-one]
11 | 8.9 nM | 50 nM | COCCNCc1ccc2c(c1)Cc1c-2[nH]c(=O)c2c1CCCC2 [Example 36, 9-((2-methoxyethylamino)methyl)-3,4,6,11-tetrahydro-1H-indeno[1,2-c]isoquinolin-5(2H)-one]
12 | 6.3 nM | 45 nM | CCCN1CCN(c2cccc3c2Cc2c-3[nH]c(=O)c3c2CCCC3)CC1 [Example 41, 10-(4-propylpiperazin-1-yl)-3,4,6,11-tetrahydro-1H-indeno[1,2-c]isoquinolin-5(2H)-one]
13 | 23.1 nM | 100 nM | C[C@@H]1CN(c2cccc3c2Cc2c-3[nH]c(=O)c3c2CCCC3)C[C@H](C)O1 [Example 32, 10-(2,6-dimethylmorpholino)-3,4,6,11-tetrahydro-1H-indeno[1,2-c]isoquinolin-5(2H)-one]
14 | 19.2 nM | 37 nM | CC(C)N1CCN(c2cccc3c2Cc2c-3[nH]c(=O)c3cccnc23)CC1 [Example 60, 10-(4-isopropylpiperazin-1-yl)-6,11-dihydro-5,1-indeno[1,2-h][1,6]naphthyridin-5-one]
15 | 28.1 nM | 13 nM | O=c1[nH]c2c(c3ncccc13)Cc1c(CNC3CCCC3)cccc1-2 [Example 62, 10-((cyclopentylamino)methyl)-6,11-dihydro-5H-indeno[1,2-h][1,6]naphthyridin-5-one]
16 | 5.2 nM | 4.1 nM | CC1CCN(Cc2cccc3c2Cc2c-3[nH]c(=O)c3c2CCCC3)CC1 [Example 20, 10-((4-methylpiperidin-1-yl)methyl)-3,4,6,11-tetrahydro-1H-indeno[1,2-c]isoquinolin-5(2H)-one mesylate]
17 | 89.8 nM | 6 nM | C[S+]([O-])CCC(=O)Nc1cccc2c1Cc1c-2[nH]c(=O)c2c1CCCC2 (centres unmarked) [Example 53, 3-(methylsulfinyl)-N-(5-oxo-2,3,4,5,6,11-hexahydro-1H-indeno[1,2-c]isoquinolin-10-yl)propanamide]
18 | 12.7 nM | 20.9 nM | O=c1[nH]c2c(c3c1CCCC3)Cc1c(CN3CCC(N4CCCC4)CC3)cccc1-2 [Example 23, 10-((4-(pyrrolidin-1-yl)piperidin-1-yl)methyl)-3,4,6,11-tetrahydro-1H-indeno[1,2-c]isoquinolin-5(2H)-one]
19 | > 250 nM | 59 nM | CC(C)(O)C(=O)Nc1cccc2c1Cc1c-2[nH]c(=O)c2c1CCCC2 [Example 51, 2-hydroxy-2-methyl-N-(5-oxo-2,3,4,5,6,11-hexahydro-1H-indeno[1,2-c]isoquinolin-10-yl)propanamide]
20 | 93.9 nM | 12.7 nM | CCOC1CCN(Cc2cccc3c2Cc2c-3[nH]c(=O)c3c2CCCC3)CC1 [Example 9, 10-((4-ethoxypiperidin-1-yl)methyl)-3,4,6,11-tetrahydro-1H-indeno[1,2-c]isoquinolin-5(2H)-one]
21 | 27.9 nM | 46 nM | O=c1[nH]c2c(c3ncccc13)Cc1c-2cccc1N1CCN(CC2CC2)CC1 [Example 61, 10-(4-(cyclopropylmethyl)piperazin-1-yl)-6,11-dihydro-5H-indeno[1,2-h][1,6]naphthyridin-5-one]
22 | 41.2 nM | 34 nM | O=c1[nH]c2c(c3sccc13)Cc1c(CNC3CCCC3)cccc1-2 [Example 55, 9-((cyclopentylamino)methyl)-5,10-dihydro-4H-indeno[1,2-b]thieno[2,3-d]pyridin-4-one]
23 | 55.7 nM | 22.7 nM | COCCN1CCN(c2cccc3c2Cc2c-3[nH]c(=O)c3cccnc23)CC1 [Example 49, 10-(4-(2-methoxyethyl)piperazin-1-yl)-6,11-dihydro-5H-indeno[1,2-h][1,6]naphthyridin-5-one]
24 | 19.9 nM | 9 nM | CN1CCN(c2cccc3c2Cc2c-3[nH]c(=O)c3cccnc23)CC1 [Example 56, 10-(4-methylpiperazin-1-yl)-6,11-dihydro-5H-indeno[1,2-d][1,6]naphthyridin-5-one]
25 | 12.4 nM | 2.4 nM | CCN1CCN(c2cccc3c2Cc2c-3[nH]c(=O)c3cccnc23)CC1 [Example 59, 10-(4-ethylpiperazin-1-yl)-6,11-dihydro-5H-indeno[1,2-h][1,6]naphthyridin-5-one]
